# Target: T1, SARM1 (ARM-SAM-TIR, full length SARM1) (Homo sapiens, UniProt Q6SZW1)
# T1 sequence (Q6SZW1 with tags, fused parts or gaps): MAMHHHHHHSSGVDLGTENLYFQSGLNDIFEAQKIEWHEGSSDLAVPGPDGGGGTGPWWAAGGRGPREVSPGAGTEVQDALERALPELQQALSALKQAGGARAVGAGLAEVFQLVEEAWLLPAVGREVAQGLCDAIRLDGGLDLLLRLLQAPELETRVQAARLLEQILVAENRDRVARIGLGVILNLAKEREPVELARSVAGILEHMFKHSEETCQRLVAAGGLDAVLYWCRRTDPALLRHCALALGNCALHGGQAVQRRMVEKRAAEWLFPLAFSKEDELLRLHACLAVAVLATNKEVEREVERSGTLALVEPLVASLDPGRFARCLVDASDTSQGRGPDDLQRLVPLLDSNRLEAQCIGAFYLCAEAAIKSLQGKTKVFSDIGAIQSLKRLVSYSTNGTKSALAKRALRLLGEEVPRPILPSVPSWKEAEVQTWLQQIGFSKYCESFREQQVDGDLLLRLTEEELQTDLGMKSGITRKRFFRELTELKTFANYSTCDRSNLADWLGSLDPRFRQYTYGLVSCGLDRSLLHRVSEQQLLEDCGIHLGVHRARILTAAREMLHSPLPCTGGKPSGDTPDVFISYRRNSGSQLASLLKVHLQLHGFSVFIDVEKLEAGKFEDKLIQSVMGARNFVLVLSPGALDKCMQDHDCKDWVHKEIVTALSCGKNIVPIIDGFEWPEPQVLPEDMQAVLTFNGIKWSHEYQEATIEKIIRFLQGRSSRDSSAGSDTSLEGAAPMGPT
# Experiment: biochemical
# Conditions: SARM1 IC50 (nM), ARM-SAM-TIR lysate 5 μg/mL from NRK1-HEK293T cells, 2 h pre-incubation, 5 uM NAD+, 2 hr room temperature
# Procedure: This assay makes use of full length SARM1, which encompasses the ARM, SAM and TIR domains.
# Preparation of ARM-SAM-TIR lysate (STL)
# NRK1-HEK293T cells were seeded onto 150 cm^2 plates at 20×10^6 cells per plate. The next day, the cells were transfected with 15 g ARM-SAM-TIR expression plasmid, SEQ ID NO: 1.
# The cultures were supplemented with 1 mM NR at time of transfection to minimize toxicity from ARM-SAM-TIR overexpression. Forty-eight hours after transfection, cells were harvested, pelleted by centrifugation at 1,000 rpm (Sorvall ST 16R centrifuge, Thermo Fisher), and washed once with cold PBS (0.01 M phosphate buffered saline NaCl 0.138 M; KCl 0.0027 M; pH 7.4). The cells were resuspended in PBS with protease inhibitors (cOmplete™ protease inhibitor cocktail, Roche product #11873580001) and cell lysates were prepared by sonication (Branson Sonifer 450, output=3, 20 episodes of stroke). The lysates were centrifuged (12,000×g for 10 min at 4° C.) to remove cell debris and the supernatants (containing ARM-SAM-TIR protein) were stored at −80° C. for later use in the in vitro ARM-SAM-TIR NADase assay (see below). Protein concentration was determined by the Bicinchoninic (BCA) method and used to normalize lysate concentrations.
# ARM-SAM-TIR IC50 assay of Formula I compounds.
# The enzymatic assay was performed in a 384-well polypropylene plate in Dulbecco's PBS buffer in a final assay volume of 20 μL. ARM-SAM-TIR lysate with a final concentration of 5 μg/mL was pre-incubated with the respective compound at 1% DMSO final assay concentration over 2h at room temperature. The reaction was initiated by addition of 5 uM final assay concentration of NAD+ as substrate. After a 2 hr room temperature incubation, the reaction was terminated with 40 μL of stop solution of 7.5% trichloroactetic acid in acetonitrile. The NAD+ and ADPR concentrations were analyzed by a RapidFire High Throughput Mass Spectrometry System (Agilent Technologies, Santa Clara, Calif.) using an API4000 triple quadrupole mass spectrometer (AB Sciex Framingham, Mass.).
row,IC50,Structure (SMILES)
1,> 1000 nM,"N[C@H]1CC(Cc2ccc(Cl)nc2)C(=O)N(c2nnc(-c3ccncc3)[nH]2)C1 (single isomer, unassigned) [Compound I-61]"
2,< 50 nM,"O=C1C(Cc2ccc(Cl)cc2)CCN1c1nnc(-c2ccncc2)[nH]1 (single isomer, unassigned) [I-4* (peak 1)]"
3,< 50 nM,"O=C1C(Cc2ccc(Cl)cc2)CCCN1c1nnc(-c2ccncc2)[nH]1 (single isomer, unassigned) [I-5* (peak 1)]"
4,51 to 100 nM,"Cc1c(N2CCC(Cc3ccc(Cl)cc3)C2=O)n[nH]c1-c1ccncc1 (single isomer, unassigned) [I-6* (peak 1)]"
5,101 to 500 nM,"O=C1C(Cc2ccc(F)cc2)CCN1c1nnc(-c2ccncc2)[nH]1 (single isomer, unassigned) [I-7* (peak 1)]"
6,< 50 nM,"O=C1C(Cc2ccc(F)cc2)CCN1c1nnc(-c2ccncc2)[nH]1 (single isomer, unassigned) [I-7* (peak 2)]"
7,< 50 nM,"O=C1C(Cc2ccc(Cl)c(F)c2)CCN1c1nnc(-c2ccncc2)[nH]1 (single isomer, unassigned) [I-8* (peak 1)]"
8,101 to 500 nM,"O=C1C(Cc2ccc(Cl)nc2)CCN1c1nnc(-c2ccncc2)[nH]1 (single isomer, unassigned) [I-9* (peak 1)]"
9,51 to 100 nM,"O=C1C(Cc2ccc(Cl)nc2)CCN1c1nnc(-c2ccncc2)[nH]1 (single isomer, unassigned) [I-9* (peak 2)]"
10,< 50 nM,"O=C1C(Cc2ccc(F)c(F)c2)CCN1c1nnc(-c2ccncc2)[nH]1 (single isomer, unassigned) [I-11* (peak 1)]"
11,51 to 100 nM,"O=C1C(Cc2ccc(F)c(F)c2)CCN1c1nnc(-c2ccncc2)[nH]1 (single isomer, unassigned) [I-11* (peak 2)]"
12,< 50 nM,"O=C1C(Cc2ccc(F)c(F)c2)CCN1c1cc(-c2ccncc2)n[nH]1 (single isomer, unassigned) [I-16* (peak 1)]"
13,< 50 nM,"O=C1C(Cc2ccc(Cl)cc2)CCCN1c1cc(-c2ccncc2)n[nH]1 (single isomer, unassigned) [I-19* (peak 1)]"
14,< 50 nM,"O=C1C(Cc2ccc(Cl)c(F)c2)CCCN1c1cc(-c2ccncc2)n[nH]1 (single isomer, unassigned) [I-20* (peak 1)]"
15,101 to 500 nM,"O=C1C(Cc2ccc(Cl)nc2)CCCN1c1cc(-c2ccncc2)n[nH]1 (single isomer, unassigned) [I-21* (peak 1)]"
16,< 50 nM,"O=C1C(Cc2ccc(Cl)nc2)CCCN1c1cc(-c2ccncc2)n[nH]1 (single isomer, unassigned) [I-21* (peak 2)]"
17,101 to 500 nM,"N#Cc1ccc(CC2CCN(c3[nH]nc(-c4ccncc4)c3F)C2=O)cc1F (single isomer, unassigned) [I-25* (peak 1)]"
18,< 50 nM,"N#Cc1ccc(CC2CCN(c3[nH]nc(-c4ccncc4)c3F)C2=O)cc1F (single isomer, unassigned) [I-25* (peak 2)]"
19,101 to 500 nM,"N#Cc1ccc(CC2CCN(c3nnc(-c4ccncc4)[nH]3)C2=O)cc1F (single isomer, unassigned) [I-26* (peak 1)]"

row,IC50,Structure (SMILES)
1,51 to 100 nM,"O=C1C(Cc2ccc(F)nc2)CCN1c1[nH]nc(-c2ccncc2)c1Cl (single isomer, unassigned) [I-32* (peak 1)]"
2,< 50 nM,"O=C1C(Cc2ccc(F)nc2)CCN1c1[nH]nc(-c2ccncc2)c1Cl (single isomer, unassigned) [I-32* (peak 2)]"
3,51 to 100 nM,"O=C1C(Cc2ccc(F)nc2)CCN1c1[nH]nc(-c2ccncc2)c1F (single isomer, unassigned) [I-33* (peak 1)]"
4,< 50 nM,"O=C1C(Cc2ccc(F)nc2)CCN1c1[nH]nc(-c2ccncc2)c1F (single isomer, unassigned) [I-33* (peak 2)]"
5,< 50 nM,"O=C1C(Cc2ccc(Cl)nc2)CCN1c1[nH]nc(-c2ccncc2)c1Cl (single isomer, unassigned) [I-34* (peak 1)]"
6,51 to 100 nM,"N#Cc1ccc(CC2CCN(c3cc(-c4ccncc4)n[nH]3)C2=O)cc1F (single isomer, unassigned) [I-37* (peak 1)]"
7,501 to 1000 nM,"O=C1C(Cc2ccc(Cl)cc2)CNCCN1c1nc(-c2ccncc2)n[nH]1 (single isomer, unassigned) [I-38* (peak 1)]"
8,> 1000 nM,"O=C1C(Cc2ccc(Cl)cc2)CNCCN1c1nc(-c2ccncc2)n[nH]1 (single isomer, unassigned) [I-38* (peak 2)]"
9,101 to 500 nM,"O=C1C(Cc2ccc(F)nc2)CCN1c1nnc(-c2ccncc2)[nH]1 (single isomer, unassigned) [I-39* (peak 1)]"
10,> 1000 nM,"O=C1C(Cc2ccc(Cl)nc2)CCCCN1c1cc(-c2ccncc2)n[nH]1 (single isomer, unassigned) [I-40* (peak 1)]"
11,101 to 500 nM,"O=C1C(Cc2ccc(Cl)nc2)CCCCN1c1cc(-c2ccncc2)n[nH]1 (single isomer, unassigned) [I-40* (peak 2)]"
12,101 to 500 nM,"Cc1c(-c2ccncc2)n[nH]c1N1CCC(Cc2cnc(Cl)c(F)c2)C1=O (single isomer, unassigned) [I-41* (peak 1)]"
13,> 1000 nM,"O=C1N(c2nc(-c3ccncc3)n[nH]2)CCC1(F)Cc1ccc(Cl)nc1 (single isomer, unassigned) [I-42* (peak 1)]"
14,51 to 100 nM,"O=C1C(Cc2ccc(Cl)cc2)OCCN1c1cc(-c2ccncc2)n[nH]1 (single isomer, unassigned) [I-47* (peak 1)]"
15,> 1000 nM,"O=C1C(Cc2ccc(Cl)cc2)OCCN1c1cc(-c2ccncc2)n[nH]1 (single isomer, unassigned) [I-47* (peak 2)]"
16,101 to 500 nM,"Cc1c(-c2ccncc2)n[nH]c1N1CCC(Cc2ccc(Cl)nc2)C1=O (single isomer, unassigned) [I-48* (peak 1)]"
17,101 to 500 nM,"Cc1c(-c2ccncc2)n[nH]c1N1CCC(Cc2ccc(F)c(F)c2)C1=O (single isomer, unassigned) [I-49* (peak 1)]"
18,51 to 100 nM,"Cc1c(-c2ccncc2)n[nH]c1N1CCC(Cc2ccc(F)c(F)c2)C1=O (single isomer, unassigned) [I-49* (peak 2)]"
19,501 to 1000 nM,"CC1(Cc2ccc(Cl)cc2)CCCN(c2nc(-c3ccncc3)n[nH]2)C1=O (single isomer, unassigned) [I-54* (peak 1)]"

row,IC50,Structure (SMILES)
1,101 to 500 nM,"CC1(Cc2ccc(Cl)cc2)CCCN(c2nc(-c3ccncc3)n[nH]2)C1=O (single isomer, unassigned) [I-54* (peak 2)]"
2,51 to 100 nM,"O=C1C(Cc2ccc(Cl)nc2)CCCN1c1nnc(-c2ccncc2)[nH]1 (single isomer, unassigned) [I-55* (peak 1)]"
3,> 1000 nM,"N[C@H]1CC(Cc2ccc(Cl)nc2)C(=O)N(c2cc(-c3ccncc3)n[nH]2)C1 (single isomer, unassigned) [I-60* (peak 1)]"
4,101 to 500 nM,"N[C@H]1CC(Cc2ccc(Cl)nc2)C(=O)N(c2cc(-c3ccncc3)n[nH]2)C1 (single isomer, unassigned) [I-60* (peak 2)]"
5,< 50 nM,"O=C1C(Cc2cnc(Cl)c(F)c2)CCN1c1cc(-c2ccncc2)n[nH]1 (single isomer, unassigned) [I-65* (peak 1)]"
6,< 50 nM,"O=C1C(Cc2cnc(Cl)c(F)c2)CCCN1c1cc(-c2ccncc2)n[nH]1 (single isomer, unassigned) [I-66* (peak 1)]"
7,101 to 500 nM,"O=C1C(Cc2cnc(Cl)c(F)c2)CCCN1c1cc(-c2ccncc2)n[nH]1 (single isomer, unassigned) [I-66* (peak 2)]"
8,51 to 100 nM,"O=C1C(Cc2ccc(F)nc2)CCN1c1cc(-c2ccncc2)n[nH]1 (single isomer, unassigned) [I-67* (peak 1)]"
9,< 50 nM,"O=C1C(Cc2ccc(F)nc2)CCN1c1cc(-c2ccncc2)n[nH]1 (single isomer, unassigned) [I-67* (peak 2)]"
10,< 50 nM,"[2H]C([2H])(c1ccc(Cl)nc1)C1([2H])C(=O)N(c2cc(-c3ccncc3)n[nH]2)C([2H])([2H])C([2H])([2H])C1([2H])[2H] (single isomer, unassigned) [I-79* (peak 1)]"
11,101 to 500 nM,"[2H]C([2H])(c1ccc(Cl)nc1)C1([2H])C(=O)N(c2cc(-c3ccncc3)n[nH]2)C([2H])([2H])C([2H])([2H])C1([2H])[2H] (single isomer, unassigned) [I-79* (peak 2)]"
12,101 to 500 nM,O=C1[C@H](Cc2ccc(Cl)cc2)NCCN1c1cc(-c2ccncc2)n[nH]1 [Compound I-1-a]
13,> 1000 nM,O=C1[C@@H](Cc2ccc(Cl)cc2)NCCN1c1cc(-c2ccncc2)n[nH]1 [Compound I-1-b]
14,> 1000 nM,CN1CCN(c2cc(-c3ccncc3)n[nH]2)C(=O)[C@@H]1Cc1ccc(Cl)cc1 [Compound I-2-a]
15,> 1000 nM,Cc1c(-c2ccncc2)n[nH]c1N1CCN[C@@H](Cc2ccc(Cl)cc2)C1=O [Compound I-3-a]
16,< 50 nM,O=C1C(Cc2ccc(Cl)cc2)CCN1c1nnc(-c2ccncc2)[nH]1 (centres unmarked) [Compound I-4]
17,< 50 nM,O=C1C(Cc2ccc(Cl)cc2)CCCN1c1nnc(-c2ccncc2)[nH]1 (centres unmarked) [Compound I-5]
18,51 to 100 nM,Cc1c(N2CCC(Cc3ccc(Cl)cc3)C2=O)n[nH]c1-c1ccncc1 (centres unmarked) [Compound I-6]
